Source: the NIST ThermoML archive (doi:10.1016/j.fluid.2009.01.004)

Experiment: xn = mol fraction of the nth substance listed
Conditions: 101 kPa, Liquid, Capillary tube (Ostwald / Ubbelohde) method

CCN(CC)CC [triethylamine] + O
viscosity [mPa·s]
Conditions	x1 = 0.019	x1 = 0.042	x1 = 0.077	x1 = 0.106	x1 = 0.151	x1 = 0.21	x1 = 0.293	x1 = 0.415	x1 = 0.615	x1 = 1
283.15 K	2.52	4.075	5.547	6.629	6.651	5.635	4.242	2.821	1.84	0.4275
286.15 K	2.211	3.512	4.761	5.476	5.497	4.801	3.679	2.511	1.531	0.414
288.15 K	2.033	3.199	4.242	4.748	4.769	4.302	3.366	2.333	1.354	0.4051
290.15 K	1.875	2.948	3.764	4.07	4.092	3.85	3.115	2.175	1.195	0.3961
291.15 K	1.804	2.846	3.53	3.751	3.773	3.644	3.013	2.104	1.124	0.3917
291.35 K	1.792	2.831	3.482	3.677	3.699	3.611	2.998	2.093	1.113	0.391

O [water] + CCN(CC)CC
x2 = 0
Conditions	viscosity [mPa·s]
283.15 K	1.306
286.15 K	1.206
288.15 K	1.144
290.15 K	1.085
291.15 K	1.058
291.35 K	1.053
